We go through two molecules from patent US9340536B2, “Multicomponent crystals comprising dasatinib and selected co-crystal formers” (BASF SE, priority 2012, dated 2016).

≈ marks a conversion by molar mass, not a printed value.

A short description of series [1]: Aqueous solubility determination (suspension in pure water, HPLC). The settings on record: 25 °C.
Experimental: Solubility Determinations:
Solubility determinations were carried out in pure water at 25±2° C. Suspensions with about 10 mg co-crystal in 0.5 mL water were prepared an equilibrated for two hours before the solution phase was filtered off and tested by HPLC.
HPLC was carried out on an Agilent 1100 HPLC chromatograph equipped with a UV-vis detection unit. […] The column type used was a Waters XTerra MS C18, 250×4.6 mm, 5 μm (FK-CC14). The method as referenced above is an isocratic method using an aqueous ammonium acetate/acetic acid and methanol with a ratio of 55/45. The applied flow rate was 1.0 mL per minute, the injection volume was 20 microliter and the detection wavelength was 321 nm.
The conditions of series [2]: estimated by Roy et al., Cryst. Growth & Design 2012 (12), 2122-2126; cited from earlier work.

In series [1] (pure water, thermodynamic from solid), `Cc1nc(Nc2ncc(C(=O)Nc3c(C)cccc3Cl)s2)cc(N2CCN(CCO)CC2)n1` [Dasatinib free base monohydrate, N-(2-chloro-6-methylphenyl)-2-[[6-[4-(2-hydroxyethyl)-1-piperazinyl]-2-methyl-4-pyrimidinyl]amino]-5-thiazolecarboxamide] gave a solubility at 2 h of 0.36 µg/mL.

Turning to `Cc1nc(Nc2ncc(C(=O)Nc3c(C)cccc3Cl)s2)cc(N2CCN(CCO)CC2)n1` [Dasatinib free base anhydrous form, N-(2-chloro-6-methylphenyl)-2-[[6-[4-(2-hydroxyethyl)-1-piperazinyl]-2-methyl-4-pyrimidinyl]amino]-5-thiazolecarboxamide], the solubility in series [1] is ~0.9 µg/mL (≈ 1.84 µM). In addition, the “ratio of the equilibrium solubility of anhydrous Dasatinib free base to Dasatinib monohydrate free base” value in series [2] is “about 2.4”.
